Test results as given in BindingDB's records for doi:10.1016/S1074-5521(00)00004-1 (Pfizer, 2000).

Biological target: T1, Glycogen phosphorylase, liver form (Homo sapiens, UniProt P06737)
T1 sequence (P06737 whole entry): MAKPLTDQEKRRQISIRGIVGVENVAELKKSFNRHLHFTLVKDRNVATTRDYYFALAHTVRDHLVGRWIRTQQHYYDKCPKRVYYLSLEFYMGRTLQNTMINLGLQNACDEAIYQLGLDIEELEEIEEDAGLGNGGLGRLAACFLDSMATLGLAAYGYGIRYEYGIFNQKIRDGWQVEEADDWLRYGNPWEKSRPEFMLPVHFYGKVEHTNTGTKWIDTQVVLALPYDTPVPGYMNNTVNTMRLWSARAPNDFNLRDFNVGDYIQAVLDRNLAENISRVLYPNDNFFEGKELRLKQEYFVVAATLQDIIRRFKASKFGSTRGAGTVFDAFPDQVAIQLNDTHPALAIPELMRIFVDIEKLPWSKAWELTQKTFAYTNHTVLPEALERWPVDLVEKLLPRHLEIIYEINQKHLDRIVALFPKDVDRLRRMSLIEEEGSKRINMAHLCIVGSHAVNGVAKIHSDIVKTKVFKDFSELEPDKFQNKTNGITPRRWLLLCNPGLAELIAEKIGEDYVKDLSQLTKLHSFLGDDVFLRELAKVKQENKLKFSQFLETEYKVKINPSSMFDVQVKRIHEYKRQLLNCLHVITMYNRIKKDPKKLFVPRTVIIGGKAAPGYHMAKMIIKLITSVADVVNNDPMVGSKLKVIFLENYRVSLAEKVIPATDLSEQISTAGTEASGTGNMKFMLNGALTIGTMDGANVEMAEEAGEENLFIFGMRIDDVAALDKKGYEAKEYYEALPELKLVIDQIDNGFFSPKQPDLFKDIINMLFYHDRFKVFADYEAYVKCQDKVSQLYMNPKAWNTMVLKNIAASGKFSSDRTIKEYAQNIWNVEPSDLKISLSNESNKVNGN
Assay: Inhibition Activity Assay
Conditions: pH 7.2; 22 °C
Description: Human liver glycogen phsphorylase (HLGP) activity was measured in the direction of glycogen synthesis by the release of phosphate from glucose-1-phosphate.

| Structure (SMILES) | IC50 [µM] |
| --- | --- |
| Cc1ccc2[nH]c(C(=O)NCCOCCOCCNC(=O)c3cc4cc(Cl)ccc4[nH]3)cc2c1 [CP-526,423] | 0.006 |
| COCCNC(=O)c1cc2cc(Cl)ccc2[nH]1 | 12.5 |
